How the values were obtained:
male beagle dogs = experiment: Oromucosal (buccal) spray in male beagle dogs, testosterone response; assay type: in vivo; settings: 0.5 mg oromucosal spray
Protocol: The GnRH analogue leuprorelin acetate (leuprolide acetate) which is available as an injectable, was reformulated as described in Example 3. This spray was administered to male beagle dogs at a dose of 0.5 mg suspended in 140 μl and dispensed in a single spray to the inner cheek of male beagle dogs (studies 1 and 2). In addition, formulation 2 was sprayed to the mucosae at the back of the throat in a separate study to determine if this would alter the absorption characteristics (study 3). The two formulations were administered with a one week washout period. Drug was dispensed in a single spray with a volume of 140 μl (studies 1 and 2) or three consecutive sprays (study 3). The aim of the study was to determine if leuprolide could be delivered as an oralmucosal spray and to determine the minimum exposure required to increase levels of testosterone.
The blood levels for leuprolide were monitored 15 minutes before the start of the study and at time “0” (immediately after drug administration), then at 15, 30 minutes and at 1, 2, 3 and 5 hours (postdosing; studies 1 and 2). In addition, for study 3, two additional time points were included at 5 and 10 min post dosing. […]
The study was conducted by the University Health Network in Toronto and specifically at the Toronto Western Hospital. Serum samples were analysed at Inventiv Health in Quebec City.

[1] = intranasal; cited from earlier work
[2] = system: patient suffering from hypogonadotropic hypogonadism; settings: intranasal, daily administration of a low dose; cited from earlier work
[3] = system: normally menstruating females; settings: 25 μg LH-RH each, double stimulation on three consecutive days, 12 females; cited from earlier work

With `CCNC(=O)[C@@H]1CCCN1C(=O)[C@H](CCCNC(=N)N)NC(=O)[C@H](CC(C)C)NC(=O)[C@@H](CC(C)C)NC(=O)[C@H](Cc1ccc(O)cc1)NC(=O)[C@H](CO)NC(=O)[C@H](Cc1c[nH]c2ccccc12)NC(=O)[C@H](Cc1c[nH]cn1)NC(=O)[C@@H]1CCC(=O)N1` [Leuprolide acetate, leuprolide acetate] the “exposure levels at which the testosterone increase occurred” value (male beagle dogs) was “at least 30 pg/ml” and the “peak testosterone increase compared to baseline” value (male beagle dogs; FIGS. 1a, b) was roughly 200%.

For `CCNC(=O)[C@@H]1CCCN1C(=O)[C@H](CCCNC(=N)N)NC(=O)[C@H](CC(C)C)NC(=O)[C@@H](COC(C)(C)C)NC(=O)[C@H](Cc1ccc(O)cc1)NC(=O)[C@H](CO)NC(=O)[C@H](Cc1c[nH]c2ccccc12)NC(=O)[C@H](Cc1cnc[nH]1)NC(=O)[C@@H]1CCC(=O)N1` [buserelin], the bioavailability [1] is given as 3% and the testosterone [2] is given as “chronic and sustained increase in testosterone”.

For “luteinizing hormone-releasing hormone (QHWSYGLRPG; Gonadoliberin-1; UniProt P01148 24-33, looked up) [LH-RH, Native or physiological GnRH, hormone secreted by the hypothalamus]”, the “serum LH levels” value [3] is listed as “Increases in serum LH levels were found after each of the two stimulations”.

— US20170348231A1, “COMPOSITION AND METHOD FOR BUCCAL ADMINISTRATION OF GnRH AGONISTS” (NHTherapeutics INC, priority 2016, published 2017)
